Where two headings read alike, the source gives them in different places.
Test: 14-day oral gavage toxicokinetic study in rats
Assay type: in vivo
Details: rat, plasma, po; for concentration at 0.5 h / concentration at 1 h / concentration at 2 h / concentration at 4 h / concentration at 8 h / concentration at 12 h / concentration at 24 h / concentration at […]: rats; for half-life: read-out: t½ (converted)
Description: Plasma was obtained from blood samples collected from rats in a composite sampling scheme, with 3 samples collected per sex, per dose, at each target collection time, as illustrated in Table 21 to Table 25. Samples were collected from the vehicle control group on Day 1 and Day 14 at 3 hour after administration. […] Blood samples were collected in tubes containing K3EDTA as an anticoagulant and placed on ice until processed to plasma via centrifugation. Samples were stored frozen at −80° C. until shipment to the bioanalytical laboratory for analysis.
The following parameters were determined:
Cmax: Maximum observed plasma concentration (ng/mL).
A value of 0 ng/mL was assigned to all values below the lower limit of quantitation (BLQ, <10.0 ng/mL).
AUC(0-inf): Area under the plasma concentration vs. time curve extrapolated from 0 to infinity (ng*h/mL), calculated as AUC(0-t)+AUC(t-inf) where AUC(t-inf) is calculated as last measurable concentration (CLast) divided by ke, where ke is the elimination rate constant determined by linear regression of the last three analytically measured points on the log plasma concentration vs. time curve. The selection criteria of the data points for inclusion in the calculation of ke required that at least three data points representing the terminal phase (after Tmax) were regressed and that R2≧0.850 when rounded.
CL: Clearance (L/h/kg), calculated as the dose divided by AUC(0-t).
Vd: Volume of distribution (L/kg), calculated as dose divided by the product of ke and AUC(0-inf).
Vdss: Steady state volume of distribution (L/kg), calculated as clearance […] mean residence time, where mean residence time is calculated as the area under the first moment curve divided by AUC(0-t).
t½: Elimination half-life (h), calculated as ln(2)/ke, where ke is the elimination rate constant determined by linear regression. Half-life was defined as not determined if regression criteria (specified in AUC(0-inf) above) were not met.
Cmax/Dose: Normalized Cmax, calculated as Cmax divided by total dose.
AUC/Dose: Normalized AUC, calculated as AUC(0-t) divided by total dose.
ii. Statistical Analysis Mean and standard deviation (SD) were calculated in Watson. Values of BLQ were assigned a value of 0 ng/mL for mean calculations. Concentration values and derived TK parameters were reported to three significant figures.

[1] = female, 30 mg/kg, oral 30 mg/kg, Study Day 1, Female
[2] = female, 30 mg/kg, oral 30 mg/kg, Study Day 14, Female
[3] = male, 2 mg/kg, oral 2 mg/kg, Study Day 1, Male
[4] = male, 2 mg/kg, oral 2 mg/kg, Study Day 14, Male

Q: What does the source list for `CN1CCN(c2ccc(Nc3ncc4cc5n(c4n3)C3(CCCCC3)CNC5=O)nc2)CC1` [Compound 1, 2′-((5-(4-methylpiperazin-1-yl)pyridin-2-yl)amino)-7′,8′-dihydro-6′H-spiro[cyclohexane-1,9′-pyrazino[1′,2′:1,5]pyrrolo[2,3-d]pyrimidin]-6′-one]?
A: concentration at 0.5 h (female, 30 mg/kg, Mean Compound 1 Plasma Concentration, oral 30 mg/kg, Day 1, 0.5 h, Female): 2.16 µg/mL; concentration at 1 h (female, 30 mg/kg, Mean Compound 1 Plasma Concentration, oral 30 mg/kg, Day 1, 1 h, Female): 2.14 µg/mL; concentration at 2 h (female, 30 mg/kg, Mean Compound 1 Plasma Concentration, oral 30 mg/kg, Day 1, 2 h, Female): 3.09 µg/mL; concentration at 4 h (female, 30 mg/kg, Mean Compound 1 Plasma Concentration, oral 30 mg/kg, Day 1, 4 h, Female): 2.51 µg/mL; concentration at 8 h (female, 30 mg/kg, Mean Compound 1 Plasma Concentration, oral 30 mg/kg, Day 1, 8 h, Female): 2.47 µg/mL; concentration at 12 h (female, 30 mg/kg, Mean Compound 1 Plasma Concentration, oral 30 mg/kg, Day 1, 12 h, Female): 1.94 µg/mL; concentration at 24 h (female, 30 mg/kg, Mean Compound 1 Plasma Concentration, oral 30 mg/kg, Day 1, 24 h, Female): 0.284 µg/mL; concentration at […] (female, 30 mg/kg, Mean Compound 1 Plasma Concentration, oral 30 mg/kg, Day 1, […], Female): 0.0929 µg/mL; concentration at 0.5 h (female, 30 mg/kg, Mean Compound 1 Plasma Concentration, oral 30 mg/kg, Day 14, 0.5 h, Female): 1.54 µg/mL; concentration at 1 h (female, 30 mg/kg, Mean Compound 1 Plasma Concentration, oral 30 mg/kg, Day 14, 1 h, Female): 2.23 µg/mL; concentration at 2 h (female, 30 mg/kg, Mean Compound 1 Plasma Concentration, oral 30 mg/kg, Day 14, 2 h, Female): 2.01 µg/mL; concentration at 4 h (female, 30 mg/kg, Mean Compound 1 Plasma Concentration, oral 30 mg/kg, Day 14, 4 h, Female): 2.32 µg/mL; concentration at 8 h (female, 30 mg/kg, Mean Compound 1 Plasma Concentration, oral 30 mg/kg, Day 14, 8 h, Female): 1.96 µg/mL; concentration at 12 h (female, 30 mg/kg, Mean Compound 1 Plasma Concentration, oral 30 mg/kg, Day 14, 12 h, Female): 2.29 µg/mL; concentration at 24 h (female, 30 mg/kg, Mean Compound 1 Plasma Concentration, oral 30 mg/kg, Day 14, 24 h, Female): 0.322 µg/mL; concentration at […] (female, 30 mg/kg, Mean Compound 1 Plasma Concentration, oral 30 mg/kg, Day 14, […], Female): 0.537 µg/mL; AUC(0-inf) [1]: 43.8 µg·h/mL; AUC(0-t) [1]: 41.8 µg·h/mL; Cmax [1]: 3.09 µg/mL; Tmax [1]: 2 h; half-life [1]: 4.92 h; AUC(0-inf) [2]: 43.2 µg·h/mL; AUC(0-t) [2]: 40.6 µg·h/mL; Cmax [2]: 2.32 µg/mL; Tmax [2]: 4 h; half-life [2]: 5.56 h; concentration at 1 h (male, 2 mg/kg, Compound 1 Plasma Concentration, Male, Day 1, 1 h, daily oral 2 mg/kg (Group 7), individual animals): 0.0591 µg/mL; concentration at 2 h (male, 2 mg/kg, Compound 1 Plasma Concentration, Male, Day 1, 2 h, daily oral 2 mg/kg (Group 7), individual animals): 0.0974 µg/mL; concentration at 4 h (male, 2 mg/kg, Compound 1 Plasma Concentration, Male, Day 1, 4 h, daily oral 2 mg/kg (Group 7), individual animals): 0.122 µg/mL; concentration at 8 h (male, 2 mg/kg, Compound 1 Plasma Concentration, Male, Day 1, 8 h, daily oral 2 mg/kg (Group 7), individual animals): 0.099 µg/mL; concentration at 12 h (male, 2 mg/kg, Compound 1 Plasma Concentration, Male, Day 1, 12 h, daily oral 2 mg/kg (Group 7), individual animals): 0.0519 µg/mL; concentration at 0.5 h (male, 2 mg/kg, Compound 1 Plasma Concentration, Male, Day 14, 0.5 h, daily oral 2 mg/kg (Group 7), individual animals): 0.0363 µg/mL; concentration at 2 h (male, 2 mg/kg, Compound 1 Plasma Concentration, Male, Day 14, 2 h, daily oral 2 mg/kg (Group 7), individual animals): 0.0843 µg/mL; concentration at 4 h (male, 2 mg/kg, Compound 1 Plasma Concentration, Male, Day 14, 4 h, daily oral 2 mg/kg (Group 7), individual animals): 0.117 µg/mL; concentration at 8 h (male, 2 mg/kg, Compound 1 Plasma Concentration, Male, Day 14, 8 h, daily oral 2 mg/kg (Group 7), individual animals): 0.0687 µg/mL; concentration at 12 h (male, 2 mg/kg, Compound 1 Plasma Concentration, Male, Day 14, 12 h, daily oral 2 mg/kg (Group 7), individual animals): 0.0657 µg/mL; concentration at 0.5 h (male, 2 mg/kg, Mean Compound 1 Plasma Concentration, oral 2 mg/kg, Day 1, 0.5 h, Male): 0.0577 µg/mL; concentration at 1 h (male, 2 mg/kg, Mean Compound 1 Plasma Concentration, oral 2 mg/kg, Day 1, 1 h, Male): 0.0571 µg/mL; concentration at 2 h (male, 2 mg/kg, Mean Compound 1 Plasma Concentration, oral 2 mg/kg, Day 1, 2 h, Male): 0.102 µg/mL; concentration at 8 h (male, 2 mg/kg, Mean Compound 1 Plasma Concentration, oral 2 mg/kg, Day 1, 8 h, Male): 0.0904 µg/mL; concentration at 12 h (male, 2 mg/kg, Mean Compound 1 Plasma Concentration, oral 2 mg/kg, Day 1, 12 h, Male): 0.0537 µg/mL; concentration at 0.5 h (male, 2 mg/kg, Mean Compound 1 Plasma Concentration, oral 2 mg/kg, Day 14, 0.5 h, Male): 0.047 µg/mL; concentration at 1 h (male, 2 mg/kg, Mean Compound 1 Plasma Concentration, oral 2 mg/kg, Day 14, 1 h, Male): 0.0571 µg/mL; concentration at 2 h (male, 2 mg/kg, Mean Compound 1 Plasma Concentration, oral 2 mg/kg, Day 14, 2 h, Male): 0.0949 µg/mL; concentration at 4 h (male, 2 mg/kg, Mean Compound 1 Plasma Concentration, oral 2 mg/kg, Day 14, 4 h, Male): 0.116 µg/mL; concentration at 8 h (male, 2 mg/kg, Mean Compound 1 Plasma Concentration, oral 2 mg/kg, Day 14, 8 h, Male): 0.0942 µg/mL; concentration at 12 h (male, 2 mg/kg, Mean Compound 1 Plasma Concentration, oral 2 mg/kg, Day 14, 12 h, Male): 0.054 µg/mL; AUC(0-t) [3]: 1.39 µg·h/mL; Cmax [3]: 0.126 µg/mL; Tmax [3]: 4 h; half-life [3]: 5.32 h; AUC(0-t) [4]: 1.36 µg·h/mL; Cmax [4]: 0.116 µg/mL; Tmax [4]: 4 h; half-life [4]: 4.98 h

Reference: US20160220569A1, “CDK4/6 Inhibitor Dosage Formulations For The Protection Of Hematopoietic Stem And Progenitor Cells During Chemotherapy” (G1 Therapeutics, Inc., priority 2015, published 2016)
